# Assay: Coinfusion of carboplatin and gadolinium-DTPA into pig corona radiata (T1 MRI, LA-ICP-MS)
# Assay type: in vivo
# Settings: carboplatin 0.03 mg/ml coinfused with 0.3% gadolinium-DTPA, CED
# Method: Carboplatin infusions were undertaken into male Large White Landrace pigs weighing 45 kg using a cannula system developed in-house. Pig anaesthesia, head immobilisation and brain imaging were achieved as we have previously described White et al (2010). Infusions of 120 μl 0.03 mg/ml carboplatin mixed with 0.3% (6 μmol/l) Gadolinium-DTPA (Magnevist: Bayer Healthcare, Germany), were undertaken bilaterally into the corona radiata using a cannula composed of a length of fused silica (outer diameter 220 μm, inner diameter 150 μm) bonded to a glass Hamilton syringe. Except for the distal 3 mm, this fused silica tube was supported along its length by a series of zirconia tubes to ensure that it could be accurately inserted to target. Infusions were performed using the following regime: 0.5 μl/min for 5 min, 1 μl/min for 5 min, 2.5 μl/min for 5 min and then 5 μl/min for 20 min. This regime was employed in an attempt to minimise the occurrence of a sudden surge in pressure at the catheter tip due to elasticity in the infusion tubing. 120 μl was infused as this is the largest volume that we have previously infused into pig white matter without leakage into the ventricular system. Following infusion completion, the cannula was left in place for 10 min prior to being withdrawn slowly by hand. CSF leakage from the burr hole and cannula track was sealed with Cerebond prior to wound closure. […]
substance,measurement,value
Gadolinium-DTPA,distribution in pig corona radiata (LA-ICP-MS),distributed over a larger volume of brain than carboplatin
